The target in this assay is T1, human apelin receptor (Homo sapiens, UniProt P35414).
T1 construct: expressed in transfected cells
T1 sequence (P35414 1-380): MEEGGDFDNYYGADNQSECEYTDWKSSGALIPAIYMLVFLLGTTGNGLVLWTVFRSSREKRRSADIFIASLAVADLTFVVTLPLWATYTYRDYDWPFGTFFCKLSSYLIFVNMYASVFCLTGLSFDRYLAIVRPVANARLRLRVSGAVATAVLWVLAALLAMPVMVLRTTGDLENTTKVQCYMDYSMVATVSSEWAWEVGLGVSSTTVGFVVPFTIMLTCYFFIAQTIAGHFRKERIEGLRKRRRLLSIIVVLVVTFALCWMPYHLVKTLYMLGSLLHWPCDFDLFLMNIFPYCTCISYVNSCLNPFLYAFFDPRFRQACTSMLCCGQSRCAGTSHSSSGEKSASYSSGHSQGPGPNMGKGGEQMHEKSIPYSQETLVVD
Nature of the assay: Determination of agonism on the human apelin receptor by a calcium fluorescence assay (FLIPR). The format is cell-based. Conditions: HEK293 cells stably transfected with human apelin receptor and Giaq protein, Fluo-4 calcium fluorescence. An excerpt: Determination of Agonism on the Human Apelin Receptor by a Calcium Fluorescence Assay (FLIPR)
The assay is based on the detection of intracellular calcium changes detected by the selective, calcium-chelating dye Fluo-4 (Molecular Probes). A large fluorescence intensity increase is observed upon calcium association with Fluo-4. The dye is delivered to the cell interior using an acetoxymethylester form of Fluo-4, where the intracellular esterase activity results in the charged species being released and trapped within the cytoplasm of the cell. […] By co-expressing the human apelin receptor and a promiscuous Giaq protein, agonism of the apelin receptor couples to phospholipase-C resulting in intracellular calcium mobilization.
The HEK293 cells were stably transfected with the human apelin receptor and the Giaq protein. Cells were selected and maintained in a log phase of growth at 37° and 5% CO2 in the Iscove's minimal essential medium, 10% fetal calf serum, 1× Penicillin-Streptomycin, 400 μg/mL G418. One day prior the assay, cells were passaged by accutase and plated at a density of 50,000 cells/well onto a 96-well plates with black border but clear bottom (Costar, cat#3904) in a final volume of 200 μl growth medium.
In order to load the cells the next day with the calcium-sensitive dye, growth medium was carefully replaced by dye solution (100 μl/well) containing Fluo-4 (4 μM) in basic measurement buffer (135 mM NaCl, 5 mM KCl, 1 mM magnesium sulphate, 5 mM glucose, 20 mM Hepes, 2.5 mM probenecid; adjusted to pH 7.4). Cells were incubated for 1 h at 37° C., and then washed 3× with buffer containing no dye. The washer was programmed to leave a remaining volume of 150 μl after the third wash in the plate.
During the dye-loading of the cells, a serial compound dilution was performed in a separate 96-well plate with overall 4× increased concentrations. Small aliquots of DMSO stock solutions of the compounds (10 mM in 100% DMSO were aliquoted into 150 μl buffer in the first rows of the 96-well plates, and then serially diluted by a factor of 1:3 transferring each time 30 μl to the next rows already containing 60 μl buffer. All compounds were tested in a least 7 concentrations, each condition was performed in triplicates. As comparator, we used freshly prepared apelin-13 solutions, for which also a concentration-response curve was determined at each measurement day. The compound plate was incubated for 10 min after the final dilutions steps at 37° C. before transferring the dye-loaded cell plate and the compound plate into a FLIPR Tetra reader (Molecular Devices). Measurement within this reader started by pipetting the agonist solution (50 μl) on the cell plate. Overall perform 60 reads were performed with an interval of 2 sec. The maximum of the fluorescence transient was used to calculate the agonistic response of the cells. In order to normalize this response, which may vary from plate to plate we set the maximum fluorescence achieved by 1 μM apelin-13 on this plate as 100%.
EC-50 values for apelin-13 and the apelin receptor compounds described in this patent were determined by standard algorithms using a specific software package.

In US9156796B2, “Benzoimidazole-carboxylic acid amide derivatives as APJ receptor modulators” (SANOFI, priority 2013, dated 2015) one finds EC50 data, which are given here for 22 compounds.

What is called EC50 is the concentration needed to bring the measured effect to its halfway point.

Where two headings read alike, the source gives them in different places.

Consider `CCC[C@@H](CO)NC(=O)c1ccc2c(c1)nc(CC1CCCC1)n2C(CC)CC` [Example 186, 2-Cyclopentylmethyl-1-(1-ethyl-propyl)-1H-benzoimidazole-5-carboxylic acid ((S)-1-hydroxymethyl-butyl)-amide], for which the EC50 (read-out: EC50 (APJ agonism)) amounted to 4670 nM.

For `C[C@@H]1CCCC[C@H]1n1c(Cc2cccs2)nc2cc(C(=O)NC(CC(=O)O)C3CCCCC3)ccc21` (single isomer, unassigned) [Example 462], the EC50 (read-out: EC50 (APJ agonism)) stood at 137 nM.

On to `CC(C)C[C@@H](CC(=O)O)NC(=O)c1ccc2c(c1)nc(Cc1cccs1)n2C1CCCCC1C` (single isomer, unassigned) [Example 437], for which the EC50 (read-out: EC50 (APJ agonism)) was 4910 nM. `CCCC(NC(=O)c1ccc2c(c1)nc(Cc1cccs1)n2C(CC)CC)C(C)(C)C(=O)O` (single isomer, unassigned) [Example 466]: under “read-out: EC50 (APJ agonism)”, the EC50 was 4720 nM. With `CCC(CC)n1c(Cc2cccs2)nc2cc(C(=O)N[C@@H](CC(C)C)C(=O)NCc3cccc(OC)c3)ccc21` [Example 364, 1-(1-Ethyl-propyl)-2-thiophen-2-ylmethyl-1H-benzoimidazole-5-carboxylic acid [(S)-1-(3-methoxy-benzylcarbamoyl)-3-methyl-butyl]-amide], the EC50 (read-out: EC50 (APJ agonism)) stood at 13500 nM. With `CCCCC(CO)NC(=O)c1ccc2c(c1)nc(CC1CCCC1)n2C(CC)CC` (stereo not shown) [Example 182, 2-Cyclopentylmethyl-1-(1-ethyl-propyl)-1H-benzoimidazole-5-carboxylic acid (1-hydroxymethyl-pentyl)-amide], the EC50 (EC50 (APJ agonism)) came out at 11000 nM. For `CCC(CC)n1c(Cc2cccs2)nc2cc(C(=O)N[C@@H](CC(C)C)C(=O)N(C)CCOC)ccc21` [Example 380, 1-(1-Ethyl-propyl)-2-thiophen-2-ylmethyl-1H-benzoimidazole-5-carboxylic acid {(S)-1-[(2-methoxy-ethyl)-methyl-carbamoyl]-3-methyl-butyl}-amide], the EC50 (read-out: EC50 (APJ agonism)) was determined as 586 nM.

In the case of `CCC(CC)n1c(Cc2cccs2)nc2cc(C(=O)N[C@@H](CC(C)C)C(=O)NCCC#N)ccc21` [Example 404, 1-(1-Ethyl-propyl)-2-thiophen-2-ylmethyl-1H-benzoimidazole-5-carboxylic acid [(S)-1-(2-cyano-ethylcarbamoyl)-3-methyl-butyl]-amide], the EC50 (read-out: EC50 (APJ agonism)) stood at 788 nM.

In the case of `CC(C)C[C@H](NC(=O)c1ccc2c(c1)nc(Cc1cccs1)n2CC(C)C)C(=O)O` [Example 127, (S)-2-[(1-Isobutyl-2-thiophen-2-ylmethyl-1H-benzoimidazole-5-carbonyl)-amino]-4-methyl-pentanoic acid], the EC50 (read-out: EC50 (APJ agonism)) is 15000 nM. For `CCC(CC)n1c(Cc2cccs2)nc2cc(C(=O)N[C@@H](CC(C)C)C(=O)NCc3ncco3)ccc21` [Example 254, 1-(1-Ethyl-propyl)-2-thiophen-2-ylmethyl-1H-benzoimidazole-5-carboxylic acid {(S)-3-methyl-1-[(oxazol-2-ylmethyl)-carbamoyl]-butyl}-amide], the EC50 (read-out: EC50 (APJ agonism)) amounted to 233 nM. On to `CCC(CC)n1c(Cc2cccs2)nc2cc(C(=O)N[C@@H](CC(C)C)C(=O)NCCC3CCCN3C)ccc21` (stereo partly drawn) [Example 219, 1-(1-Ethyl-propyl)-2-thiophen-2-ylmethyl-1H-benzoimidazole-5-carboxylic acid {(S)-3-methyl-1-[2-(1-methyl-pyrrolidin-2-yl)-ethylcarbamoyl]-butyl}-amide], for which the EC50 (read-out: EC50 (APJ agonism)) is 274 nM. `CCC(CC)n1c(Cc2cccs2)nc2cc(C(=O)NC(CC(=O)O)CC3CCCCC3)ccc21` (stereo not shown) [Example 46, 4-Cyclohexyl-3-{[1-(1-ethyl-propyl)-2-thiophen-2-ylmethyl-1H-benzoimidazole-5-carbonyl]-amino}-butyric acid]: the 50% effective concentration (EC50) (read-out: EC50 (APJ agonism)) was determined as 112 nM.

In the case of `CCC(CC)n1c(Cc2ccsc2)nc2cc(C(=O)N[C@H](CC(=O)O)CC(C)C)ccc21` [Example 156, (S)-3-{[1-(1-Ethyl-propyl)-2-thiophen-3-ylmethyl-1H-benzoimidazole-5-carbonyl]-amino}-5-methyl-hexanoic acid], the EC50 (read-out: EC50 (APJ agonism)) is 210 nM.

With `CCC(CC)n1c(Cc2cccs2)nc2cc(C(=O)N[C@@H](CC(C)C)C(=O)NC3CCN(c4ncccn4)CC3)ccc21` [Example 352, 1-(1-Ethyl-propyl)-2-thiophen-2-ylmethyl-1H-benzoimidazole-5-carboxylic acid [(S)-3-methyl-1-(1-pyrimidin-2-yl-piperidin-4-ylcarbamoyl)-butyl]-amide], under “read-out: EC50 (APJ agonism)”, the EC50 is 2980 nM. In the case of `CCC(CC)n1c(Cc2cccs2)nc2cc(C(=O)N[C@@H](CC(C)C)C(=O)NCc3ccccc3OC)ccc21` [Example 238, 1-(1-Ethyl-propyl)-2-thiophen-2-ylmethyl-1H-benzoimidazole-5-carboxylic acid [(S)-1-(2-methoxy-benzylcarbamoyl)-3-methyl-butyl]-amide], for the setting “read-out: EC50 (APJ agonism)”, the EC50 amounted to 6550 nM.

With `CCC(CC)n1c(Cc2cccs2)nc2cc(C(=O)N[C@@H](CC(C)C)C(=O)N3CC4CC3CN4CC3CCCC3)ccc21` (stereo partly drawn) [Example 349, 1-(1-Ethyl-propyl)-2-thiophen-2-ylmethyl-1H-benzoimidazole-5-carboxylic acid [(S)-1-(5-cyclopentylmethyl-2,5-diaza-bicyclo[2.2.1]heptane-2-carbonyl)-3-methyl-butyl]-amide], the EC50 (read-out: EC50 (APJ agonism)) was 3040 nM. Take `CCC(CC)n1c(Cc2cccs2)nc2cc(C(=O)N[C@@H](CC(C)C)C(=O)NCC(C)(C)CN3CCCCCC3)ccc21` [Example 287, 1-(1-Ethyl-propyl)-2-thiophen-2-ylmethyl-1H-benzoimidazole-5-carboxylic acid [(S)-1-(3-azepan-1-yl-2,2-dimethyl-propylcarbamoyl)-3-methyl-butyl]-amide]: the EC50 (read-out: EC50 (APJ agonism)) was 408 nM.

Turning to `CCC(CC)n1c(Cc2cccs2)nc2cc(C(=O)N[C@@H](CC(C)C)C(=O)N3CCN(C)CC3)ccc21` [Example 225, 1-(1-Ethyl-propyl)-2-thiophen-2-ylmethyl-1H-benzoimidazole-5-carboxylic acid [(S)-3-methyl-1-(4-methyl-piperazine-1-carbonyl)-butyl]-amide], the EC50 (read-out: EC50 (APJ agonism)) worked out at 775 nM. On to `CCC(CC)n1c(Cc2cccs2)nc2cc(C(=O)NC(CC(C)C)c3nccs3)ccc21` (stereo not shown) [Example 479, 1-(1-Ethyl-propyl)-2-thiophen-2-ylmethyl-1H-benzoimidazole-5-carboxylic acid (3-methyl-1-thiazol-2-yl-butyl)-amide], for which the EC50 (read-out: EC50 (APJ agonism)) turned out to be 16900 nM. The same measure, in the same setting: as for `CCC(CC)n1c(Cc2cccs2)nc2cc(C(=O)N[C@@H](CC(C)C)C(=O)N(C)Cc3n[nH]c(=O)[nH]3)ccc21` [Example 405, 1-(1-Ethyl-propyl)-2-thiophen-2-ylmethyl-1H-benzoimidazole-5-carboxylic acid {(S)-3-methyl-1-[methyl-(5-oxo-4,5-dihydro-1H-[1,2,4]triazol-3-ylmethyl)-carbamoyl]-butyl}-amide], the figure is 842 nM; as for `CCC(CC)n1c(Cc2cccs2)nc2cc(C(=O)N[C@@H](CC(C)C)C(=O)N3CCC(N4CCCCC4)C3)ccc21` (stereo partly drawn) [Example 299, 1-(1-Ethyl-propyl)-2-thiophen-2-ylmethyl-1H-benzoimidazole-5-carboxylic acid [(S)-3-methyl-1-(3-piperidin-1-yl-pyrrolidine-1-carbonyl)-butyl]-amide], 776 nM.

Regarding `CCC(CC)n1c(Cc2cccs2)nc2cc(C(=O)N[C@@H](CC(C)C)C(=O)NCCCN3CCN(c4ccc(OC)cc4)CC3)ccc21` [Example 279, 1-(1-Ethyl-propyl)-2-thiophen-2-ylmethyl-1H-benzoimidazole-5-carboxylic acid ((S)-1-{3-[4-(4-methoxy-phenyl)-piperazin-1-yl]-propylcarbamoyl}-3-methyl-butyl)-amide], the EC50 (read-out: EC50 (APJ agonism)) worked out at 2270 nM.
